# Source: paper PMC9784828, “Antimicrobial Activity of Peptide-Coupled Antisense Peptide Nucleic Acids in Streptococcus pneumoniae” (Microbiology Spectrum, 2022)
# pIC50: −log10 of the molar value.
# Columns and labels:
# S. pneumoniae TIGR4 = assay: Bacterial killing assay (CFU/mL reduction after 6 h); type: cell-based, Streptococcus pneumoniae; conditions: for Δlog CFU reduction in S. pneumoniae strains: TIGR4: log CFU reduction CPP-antisense PNA – log CFU reduction CPP-scPNA; for Reduction of bacterial CFU/mL compared to untreated control (in words): concentration range 2.5 to 20 μM, n = 5
# Procedure: The impact of different CPPs on the efficacy of antisense PNAs targeting gyrA and rpoB in S. pneumoniae was tested using an in vitro killing assay ([25]). S. pneumoniae strains were incubated for 6 h with CPP-antisense PNA conjugates. We determined the reduction of bacterial CFU/mL caused by different CPP-coupled antisense PNA constructs compared to an untreated control. Three different CPPs were tested: HIV-1 TAT (TAT), oligolysin (K8), and (RXR)4XB (Table 1). Concentration-dependent bactericidal activity was investigated by treatment of S. pneumoniae TIGR4 in a CPP-antisense PNA conjugate concentration range of 2.5 to 20 μM (Fig. 1).
# (§1) After culturing S. pneumoniae strains in BHI, D39 and 19F were diluted to approximately 10^5 CFU/mL in phosphate-buffered saline (PBS):BHI (93%:7%), while TIGR4 was diluted to approximately 10^5 CFU/mL in PBS:BHI (96%:4%). Next, 450-μL volumes of the respective bacterial suspensions, containing approximately 0.5× 10^5 CFU, were transferred to 2-mL reaction tubes. A 50-μL volume of PNA solution was added to a final PNA concentration of 1 to 20 μM or as indicated. Fifty μL H2O served as a mock control. The reaction tubes were incubated for 6 h at 37°C and 7 rpm (Rotor SB3; Stuart, Staffordshire, United Kingdom). The concentration of CPP-PNA that reduced CFU/mL by 50% after 6 h of incubation compared to an untreated control (IC50) was calculated by nonlinear regression analysis using GraphPad Prism software (GraphPad Software, San Diego, CA).
# S. pneumoniae strain D39 = assay: as above; type: cell-based, Streptococcus pneumoniae; conditions: log CFU reduction CPP-antisense PNA – log CFU reduction CPP-scPNA
# Procedure: Similar results were obtained with S. pneumoniae strain D39 (Fig. S1). (RXR)4XB-coupled antisense PNAs were more efficient than TAT-coupled antisense PNAs. […] The difference between the target genes anti-gyrA and anti-rpoB was less pronounced in D39 than in TIGR4 (Table 2).
# as §1
# S. pneumoniae strain 19F = assay: as above; type: cell-based, Streptococcus pneumoniae; conditions: log CFU reduction CPP-antisense PNA – log CFU reduction CPP-scPNA
# Procedure: Compared to S. pneumoniae strains TIGR4 and D39, strain 19F was clearly affected by incubation with CPP-coupled scPNAs (Fig. S2). Specific antimicrobial activity of TAT-antisense PNAs was low, regardless of the target gene (Fig. S2, Table 2).
# as §1
# [1] = tested on: G. mellonella larvae infected with S. pneumoniae TIGR4; assay: G. mellonella infection model, larval survival; type: in vivo, Galleria mellonella; conditions: 10 nmol CPP-PNA/larva; for Effect on survival of infected larvae (in words): data not shown
# Procedure: Antimicrobial efficiency of CPP-antisense PNA conjugates was evaluated in vivo employing a G. mellonella infection and treatment model ([22], [28]). Larvae were infected with S. pneumoniae strain TIGR4 and subsequently treated with 10 nmol CPP-anti-gyrA PNAs. Treatment with levofloxacin served as a positive control. Larval survival was observed over 7 days.
# Larvae of the greater wax moth (G. mellonella) were obtained from Bugs-International GmbH (Irsingen/Unterfeld, Germany). For infection experiments, S. pneumoniae TIGR4 was grown for 7 h in BHI, washed twice in a 0.9% NaCl solution, and suspended in 0.9% NaCl to a final concentration of approximately 1 × 10^8 CFU/mL. Larvae weighing 150 to 200 mg were infected with 1 × 10^6 to 3 × 10^6 CFU/larva. Bacteria were injected into the hemocoel of the larvae between the last two pairs of prolegs using a microapplicator (World Precision Instruments, LLC, Sarasota, FL) and a fine-dosage syringe (Omnican-F, 0.01 to 1 mL, 0.30 × 12 mm; B. Braun AG, Melsungen, Germany). As mock control, 0.9% NaCl (PNA experiment) or 0.9% NaCl/3% DMSO (levofloxacin experiment) was injected. For CPP-PNA treatment, larvae were injected 30 min postinfection with 10 nmol CPP-PNA/larva. For levofloxacin treatment, larvae were injected 30 min postinfection with 1 or 10 μg levofloxacin/larva. Larvae were incubated for 7 days, and survival was monitored daily ([22]).
substance,measurement,setting,value
"GRKKRRQRRRYK-eg-ctgccaagatga [TAT-anti-rpoB PNA, HIV-1 TAT (48–57) peptide coupled to antisense PNA against S. pneumoniae rpoB]",Δlog CFU reduction in S. pneumoniae strains: TIGR4,"S. pneumoniae TIGR4; CPNA 2.5 μM, 6 h",0
same,Δlog CFU reduction in S. pneumoniae strains: TIGR4,"S. pneumoniae TIGR4; CPNA 5 μM, 6 h",0
same,Δlog CFU reduction in S. pneumoniae strains: TIGR4,"S. pneumoniae TIGR4; CPNA 10 μM, 6 h",0
same,Δlog CFU reduction in S. pneumoniae strains: TIGR4,"S. pneumoniae TIGR4; CPNA 20 μM, 6 h",0
same,Reduction of bacterial CFU/mL compared to untreated control (in words),"S. pneumoniae TIGR4; TIGR4, 6 h",No reduction of bacterial counts
same,Δlog CFU reduction in S. pneumoniae strains: D39,S. pneumoniae strain D39; CPNA 2.5 μM,0
same,Δlog CFU reduction in S. pneumoniae strains: D39,S. pneumoniae strain D39; CPNA 5 μM,0.11
same,Δlog CFU reduction in S. pneumoniae strains: D39,S. pneumoniae strain D39; CPNA 10 μM,0.16
same,Δlog CFU reduction in S. pneumoniae strains: D39,S. pneumoniae strain D39; CPNA 20 μM,0.51
same,Δlog CFU reduction in S. pneumoniae strains: 19F,S. pneumoniae strain 19F; CPNA 2.5 μM,0.05
same,Δlog CFU reduction in S. pneumoniae strains: 19F,S. pneumoniae strain 19F; CPNA 5 μM,0.05
same,Δlog CFU reduction in S. pneumoniae strains: 19F,S. pneumoniae strain 19F; CPNA 10 μM,0
same,Δlog CFU reduction in S. pneumoniae strains: 19F,S. pneumoniae strain 19F; CPNA 20 μM,0
same,Effect on survival of infected larvae (in words),[1],did not increase survival
"RXRRXRRXRRXRXB-eg-tgcattaata [(RXR)4XB-anti-gyrA PNA, (RXR)4XB peptide coupled to antisense PNA against gyrA]",Δlog CFU reduction in S. pneumoniae strains: TIGR4,"S. pneumoniae TIGR4; CPNA 2.5 μM, 6 h",0
same,Δlog CFU reduction in S. pneumoniae strains: TIGR4,"S. pneumoniae TIGR4; CPNA 5 μM, 6 h",0.98
same,Δlog CFU reduction in S. pneumoniae strains: TIGR4,"S. pneumoniae TIGR4; CPNA 10 μM, 6 h",≥ 1
same,Δlog CFU reduction in S. pneumoniae strains: TIGR4,"S. pneumoniae TIGR4; CPNA 10 μM, 6 h, listed as (RXR)4XB-anti-gyrA",1.80
same,Δlog CFU reduction in S. pneumoniae strains: TIGR4,"S. pneumoniae TIGR4; CPNA 20 μM, 6 h",3.18
same,log CFU reduction,"S. pneumoniae TIGR4; TIGR4, 6 h, 20 μM CPP-PNA",4
same,Reduction of bacterial CFU/mL compared to untreated control (in words),"S. pneumoniae TIGR4; TIGR4, 6 h",significant decreases
same,pIC50,"S. pneumoniae TIGR4; TIGR4, 6 h incubation vs untreated control, nonlinear regression, read-out: 50% inhibitory concentration (IC50): concentration that reduced CFU/mL by 50%",6.20
same,Δlog CFU reduction in S. pneumoniae strains: D39,S. pneumoniae strain D39; CPNA 2.5 μM,0
same,Δlog CFU reduction in S. pneumoniae strains: D39,S. pneumoniae strain D39; CPNA 5 μM,0
same,Δlog CFU reduction in S. pneumoniae strains: D39,S. pneumoniae strain D39; CPNA 10 μM,0.42
same,Δlog CFU reduction in S. pneumoniae strains: D39,S. pneumoniae strain D39; CPNA 20 μM,2.23
same,Δlog CFU reduction in S. pneumoniae strains: 19F,S. pneumoniae strain 19F; CPNA 2.5 μM,0.72
same,Δlog CFU reduction in S. pneumoniae strains: 19F,S. pneumoniae strain 19F; CPNA 5 μM,1.20
same,Δlog CFU reduction in S. pneumoniae strains: 19F,S. pneumoniae strain 19F; CPNA 10 μM,≥ 1
same,Δlog CFU reduction in S. pneumoniae strains: 19F,"S. pneumoniae strain 19F; CPNA 10 μM, listed as (RXR)4XB-anti-gyrA",1.21
same,Δlog CFU reduction in S. pneumoniae strains: 19F,S. pneumoniae strain 19F; CPNA 20 μM,1.48
same,Increase of survival rate,"[1]; 30 min postinfection, 7 days, n = 60",22%
"RXRRXRRXRRXRXB-eg-ctgccaagatga [(RXR)4XB-anti-rpoB PNA, (RXR)4XB peptide coupled to antisense PNA against rpoB]",Δlog CFU reduction in S. pneumoniae strains: TIGR4,"S. pneumoniae TIGR4; CPNA 2.5 μM, 6 h",0
same,Δlog CFU reduction in S. pneumoniae strains: TIGR4,"S. pneumoniae TIGR4; CPNA 5 μM, 6 h",0.40
same,Δlog CFU reduction in S. pneumoniae strains: TIGR4,"S. pneumoniae TIGR4; CPNA 10 μM, 6 h",0.66
same,Δlog CFU reduction in S. pneumoniae strains: TIGR4,"S. pneumoniae TIGR4; CPNA 20 μM, 6 h",≥ 1
same,Δlog CFU reduction in S. pneumoniae strains: TIGR4,"S. pneumoniae TIGR4; CPNA 20 μM, 6 h, listed as (RXR)4XB-anti-rpoB",1.58
same,Reduction of bacterial CFU/mL compared to untreated control (in words),"S. pneumoniae TIGR4; TIGR4, 6 h",significant decreases
same,Δlog CFU reduction in S. pneumoniae strains: D39,S. pneumoniae strain D39; CPNA 2.5 μM,0
same,Δlog CFU reduction in S. pneumoniae strains: D39,S. pneumoniae strain D39; CPNA 5 μM,0.16
same,Δlog CFU reduction in S. pneumoniae strains: D39,S. pneumoniae strain D39; CPNA 10 μM,0.61
same,Δlog CFU reduction in S. pneumoniae strains: D39,S. pneumoniae strain D39; CPNA 20 μM,1.98
same,Δlog CFU reduction in S. pneumoniae strains: 19F,S. pneumoniae strain 19F; CPNA 2.5 μM,0.18
same,Δlog CFU reduction in S. pneumoniae strains: 19F,S. pneumoniae strain 19F; CPNA 5 μM,0.17
same,Δlog CFU reduction in S. pneumoniae strains: 19F,S. pneumoniae strain 19F; CPNA 10 μM,0.16
same,Δlog CFU reduction in S. pneumoniae strains: 19F,S. pneumoniae strain 19F; CPNA 20 μM,0.56
same,Effect on survival of infected larvae (in words),[1],did not increase survival
